Structures can show the parent of a compound that is named as a salt.

The subject of the test is phenol red excretion in mice. As to the kind of experiment: Expectorant test, phenol red excretion method in mice. In kind it is in vivo, ICR mice. The procedure: • Animals: male ICR mice; • Drugs and reagents: Mucosolvan (ambroxol hydrochloride tablets), phenol red, sodium bicarbonate, protein BD-3; • Instruments: centrifuge (Sigma-3K15 type), balance (XS105DU type), Microplate tester (BIO-TEK type). • Experiment Grouping: • Solvent control group; • Mucosolvan 30 mg/kg group; • Protein BD-3, 20 mg/kg group, 50 mg/kg group.
The animals were fasted and water was taken freely 16 hours before the experiment. Orally administered Mucosolvan and different doses of protein BD-3 (administration volume 10 ml/kg) in groups, and the solvent control group was given the same volume of distilled water. One hour later, 2.5% phenol red solution was injected intraperitoneally. Mice were sacrificed by neck dislocation after 30 minutes. […] Measure and record the absorbance at 546 nm. According to the standard curve of phenol red, the excretion of phenol red was calculated.
Record the time point of oral administration, the time point of intraperitoneal injection of 2.5% phenol red solution, and the time point of taking the trachea respectively; The absorbance of each group of samples was measured by the microplate reader at 546 nm, Calculate the excretion of phenol red according to the standard curve of phenol red. […]

As for `Nc1c(Br)cc(Br)cc1CN[C@H]1CC[C@H](O)CC1` [Mucosolvan, ambroxol hydrochloride, reference compound], the Phenol red excretion (Mucosolvan 30 mg/kg oral, X ± SEM, solvent control 0.506 ± 0.040) is 1.061 ± 0.117 µg/mL. Also, the “Amount of phenol red excretion vs solvent control (in words)” value (Mucosolvan 30 mg/kg, P<0.05) is reported as “significantly increased”.

These data come from US20240124556A1, “KERATIN BD-3, PREPARATION METHOD THEREFOR AND PHARMACEUTICAL COMPOSITION AND USE THEREOF” (INSTITUTE OF MATERIA MEDICA, CHINESE ACADEMY OF MEDICAL …, priority 2019, published 2024).
